Assay results published in patent publication US8242152B2, “Use of 4-[(4-thiazolyl)phenoxy]alkoxy-benzamidine derivatives for the prophylaxis and treatment of osteoporosis” (Dong Wha Pharmaceutical Co., Ltd., priority 2001, dated 2012).
Where “and” joins values, the source holds several entries; their conditions need not be identical. Equal values may be shown once. Read-outs that look alike come from different tables or passages of the source.

Experiments:
MC3T3-E1 cells = test: Alkaline phosphatase (ALP) activity to measure osteoblast activity (Example 4); assay type: cell-based; details: 10^−8M; two weeks culture
Experimental: This experiment is designed to evaluate the differentiation and activity of osteoblast via ALP activity having a close relationship with osteoblastic bone formation (Y. Wada et al., Bone, 22,479-485, 1998).
MC3T3-E1 cells (3,000 cells/well) derived from osteoblast were placed on a 96 well plate and after 24-hour culture the media were changed with fresh medium containing various differentiation factors such as ascorbic acid (100 ug/ml) and β-glycerophosphatic acid (5 mM). The medium was also treated with test substances and the medium, containing differentiation factors and the specimen, was changed with a fresh medium every 3 days.
The culture was terminated after two weeks to measure ALP activity. With the removal of the supernatant, 0.5% Triton X-100 were added for the lysis of cells. 100 ul of p-nitrophenylphosphate (1.21 mM) was added to 50 ul of above mixture. The mixture was incubated at 37° C. for 30 mins and with the addition of 0.2N sodium hydroxide (50 ul), the reaction was terminated. The standard curve was indicated at the absorbance of 405 nm using p-nitrophenol as a standard material and then the absorbance of test substances, so reacted, was measured to observe the production amount of p-nitrophenol.
As shown in the following table 4, the units of ALP activity were determined as the amount of p-nitrophenol (nM) produced per time (per min or hour)/1 ug protein after measuring the amounts of protein contained in the reaction mixture of each test substance.

[1] = tested on: osteoclast differentiation; test: Inhibitory effects on osteoclast differentiation, co-culture of bone marrow cells and osteoblast, TRAP staining (Example 1); assay type: cell-based, mice; details: 7-day co-culture; for inhibition at 0.0032 µM / inhibition at 0.016 µM / inhibition at 0.08 µM / inhibition at 0.4 µM / IC50: Mus musculus, Osteoclast, 168 h; for inhibition at 0.0032 µM / inhibition at 0.016 µM / inhibition at 0.08 µM / inhibition at 0.4 µM: read-out: % inhibitory action
Experimental: The effects of each test substance on osteoclast proliferation and differentiation process were evaluated via co-culture with osteoblast.
Tibia and Femora were aseptically ectomized from male ddY mice of 6-8 weeks to harvest bone marrow cells by using a syringe (21 G, Korea Green Cross).
The bone marrow cells were suspended in 5 mL α-MEM medium (Gibco BRL Co.) containing sodium bicarbonate (2.0 g/L), streptomycin (100 mg/L) and penicillin ([…]). The harvested cells were centrifuged at 800×g for 5 minutes to collect the whole quantity. To remove the red blood cells within bone marrow cells, 3 mL of Tris HCl (0.83% NH4Cl, pH7.5) was added and well mixed. After centrifuging the above cells, the numbers of bone marrow cells were counted and then the bone marrow cells were immediately used for a co-culture system with osteoblast.
The calvaria were aseptically ectomized from neonate ICR mice of 1-2 days, washed with PBS solution and incubated with a mixture of enzyme solutions (0.2% collagenase and 0.1% dispase) at 37° C. gentle shaker. This procedure was sequentially repeated (10, 10, 10, 20, 20 and 20 minutes), and then the calvaria cells having the characteristics of osteoblast, were mostly released from III˜VI digestion groups, were collected and washed with the medium (serum-free α-MEM). The washed cells were cultivated in α-MEM medium containing 10% FBS for 2-3 days. After subculturing, these cells were used for this experiment, and diluted to reach the concentration of 1×10^6 cells/mL for storage at −70° C.
The volume of final specimen added to the medium was determined at the ratio of 1:1000.
Bone marrow cells, so prepared from the above No. 1, and osteoblast from calvaria were co-cultured for osteoclast differentiation. Both bone marrow cells (25,000 cells/cm^2) and osteoblast (10,000 cells/cm^2) were plated on a 96 well plate in α-MEM medium containing 10% FBS with the specimen, and then the reaction mixture was cultured for 7 days. Some differentiation factors, such as dexamethasone (10^−6M) and vitamin D3(10^−9M), were also continuously added to the medium from the first day of cultivation. The media were changed with fresh media containing a mixture of specimens and differentiation factors every 2-3 day.
TRAP was used as a marker to measure osteoclast in consideration of its characteristics showing a positive reaction to TRAP staining solution. TRAP staining solution was prepared in a manner such that 5 mg of naphtol AS-MS phosphate (sigma N-4875), a substrate and 25 mg of coloring agent (Fast Red Violet LB salt) were dissolved in N,N-dimethylformamide (about 0.5 mL) and with the addition of 0.1N NaHCO3 buffer solution (50 mL) containing 50 mM of tartaric acid. The reaction mixture was stored in a refrigerator prior to use.
After a 7-day culture, the medium was removed from the wells and then the cells were washed once with PBS solution and fixed to PBS containing 10% formalin for 2-5 minutes. The cells were also fixed in a mixed solution, ethanol and acetone (1/1), for about 1 minute, and dried off. The cells were further treated by TRAP staining solution for 15 minutes and washed with PBS to measure the experimental results with the staining degree of cells under a microscopic examination.
The counts of osteoclast only with more than 3 nuclei showing the TRAP-positive reaction were calculated under a microscopic examination, and each test was reconfirmed over three times to insure more reliable data.
As shown in the following table 1, the inhibitory effect of each experimental group on the differentiation of osteoclast versus controls were expressed by inhibitory percentage value, and 50% inhibitory concentration on osteoclast differentiation was calculated as IC50.

LTB4 receptor = LTB4 receptor (Homo sapiens, UniProt Q15722); parameters: endogenous in cells; host or cells: human neutrophils (PMN) purified from fresh blood; details: cited from earlier work
Sequence of LTB4 receptor (Q15722 whole entry): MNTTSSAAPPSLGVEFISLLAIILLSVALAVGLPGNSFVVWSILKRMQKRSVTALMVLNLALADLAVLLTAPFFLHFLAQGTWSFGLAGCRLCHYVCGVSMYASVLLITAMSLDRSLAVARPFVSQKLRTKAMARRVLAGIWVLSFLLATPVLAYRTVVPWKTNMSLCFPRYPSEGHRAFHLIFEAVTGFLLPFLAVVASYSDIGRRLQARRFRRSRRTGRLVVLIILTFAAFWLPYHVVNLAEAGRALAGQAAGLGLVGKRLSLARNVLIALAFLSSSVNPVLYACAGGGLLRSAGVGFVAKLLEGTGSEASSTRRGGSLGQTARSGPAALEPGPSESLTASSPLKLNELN

Molecule	ALP activity (units) (MC3T3-E1 cells)	% inhibitory action ([1]; 3.2 nM) [%]	% inhibitory action ([1]; 16 nM) [%]	% inhibitory action ([1]; 80 nM) [%]	% inhibitory action ([1]; 400 nM) [%]	Inhibition (%) of LTB4 receptor binding (LTB4 receptor; 100 nM) [%]	Inhibition (%) of LTB4 receptor binding (LTB4 receptor; 1 uM) [%]	Inhibition (%) of LTB4 receptor binding (LTB4 receptor; 100 nM, 0.1 µM)	Inhibition (%) of LTB4 receptor binding (LTB4 receptor; 100 nM, listed as 1350, 0.1 µM) [%]	inhibition at 0.0032 µM ([1]; 3.2 nM) [%]	inhibition at 0.016 µM ([1]; 16 nM) [%]	inhibition at 0.08 µM ([1]; 80 nM) [%]	inhibition at 0.4 µM ([1]; 400 nM) [%]	IC50 [1] [nM]
4-[5-[4-(aminoiminomethyl)phenoxy]pentoxy]-3-methoxy-N,N-bis(1-methylethyl)benzamide maleic acid [CGS-25019C]	15.0	−8.9	8.3	0.0	17.7									
Cc1nc(-c2ccc(OCCCCOc3ccc(C(=N)NO)cc3)cc2)c(C(C)C)s1 [DW1349, N— hydroxy-4-{4-[4-(5-isopropyl-2-methyl-1,3-thiazol-4-yl)phenoxy]butoxy}-benzamidine]						32.7	87.2							
Cc1nc(-c2ccc(OCCCCCOc3ccc(C(=N)NO)cc3)cc2)c(C(C)C)s1 [DW1350, N-hydroxy-4-{5-[4-(5-isopropyl-2-methyl-1,3-thiazol-4-yl)phenoxy]pentoxy}-benzamidine]	19.8						92.3	10% and < 10%	<10	1	68.8	82.3	88	19.9
Cc1nc(-c2ccc(OCCCCOc3ccc(C(=N)N)cc3)cc2)c(C(C)C)s1 [DW1351, 4-{4-[4-(5-isopropyl-2-methyl-1,3-thiazol-4-yl)phenoxy]butoxy}-benzamidine]						89	100							
Cc1nc(-c2ccc(OCCCCCOc3ccc(C(=N)N)cc3)cc2)c(C(C)C)s1 [DW1352, 4-{5-[4-(5-isopropyl-2-methyl-1,3-thiazol-4-yl)phenoxy]pentoxy}-benzamidine]	17.1					88	100			50	81.8	83.9	92.7	1.25
COc1cc(C(=O)N(C(C)C)C(C)C)ccc1OCCCCOc1ccc2c(N)noc2c1 [HS1141, N,N-diisopropyl-4-[4-(3-aminobenzo[d]isooxazole-6-yloxy)butoxy]-3-methoxybenzamide]	15.2						100			1.2	3	12	23.5	
